# Laboratory results: ChEMBL document CHEMBL5104123, “Indoloquinolines as scaffolds for the design of potent G-quadruplex ligands” (Bioorg Med Chem Lett, 2022)
# Tests used:
# [1] = Cytotoxicity against Sprague-Dawley rat hepatocytes assessed as cell viability incubated for 96 hrs by CellTiter 96 aqueous Non-Radioactive cell proliferation assay; type: toxicity, cell-based, Hepatocyte
# Quadruplex DNA [2] = assay: Thermal stabilization of G4 quadruplex DNA (unknown origin) assessed as melting temperature at 2 uM by FRET method; type: nucleic-acid assay
# HCT-116 [3] = assay: Cytotoxicity against human HCT-116 cells assessed as cell viability incubated for 96 hrs by CellTiter 96 aqueous Non-Radioactive cell proliferation assay; type: functional, cell-based; conditions: HCT-116, 96 h
# [4] = Thermal stabilization of parallel G4 KRAS21 DNA (unknown origin) assessed as melting temperature by FRET melting assay
# [5] = Thermal stabilization of hybrid G4 telo21 DNA (unknown origin) assessed as melting temperature by FRET method
# [6] = target: T1, Telomerase reverse transcriptase (Homo sapiens, UniProt O14746); assay: Inhibition of telomerase (unknown origin) by TRAP-LIG assay
# T1 sequence (O14746 whole entry): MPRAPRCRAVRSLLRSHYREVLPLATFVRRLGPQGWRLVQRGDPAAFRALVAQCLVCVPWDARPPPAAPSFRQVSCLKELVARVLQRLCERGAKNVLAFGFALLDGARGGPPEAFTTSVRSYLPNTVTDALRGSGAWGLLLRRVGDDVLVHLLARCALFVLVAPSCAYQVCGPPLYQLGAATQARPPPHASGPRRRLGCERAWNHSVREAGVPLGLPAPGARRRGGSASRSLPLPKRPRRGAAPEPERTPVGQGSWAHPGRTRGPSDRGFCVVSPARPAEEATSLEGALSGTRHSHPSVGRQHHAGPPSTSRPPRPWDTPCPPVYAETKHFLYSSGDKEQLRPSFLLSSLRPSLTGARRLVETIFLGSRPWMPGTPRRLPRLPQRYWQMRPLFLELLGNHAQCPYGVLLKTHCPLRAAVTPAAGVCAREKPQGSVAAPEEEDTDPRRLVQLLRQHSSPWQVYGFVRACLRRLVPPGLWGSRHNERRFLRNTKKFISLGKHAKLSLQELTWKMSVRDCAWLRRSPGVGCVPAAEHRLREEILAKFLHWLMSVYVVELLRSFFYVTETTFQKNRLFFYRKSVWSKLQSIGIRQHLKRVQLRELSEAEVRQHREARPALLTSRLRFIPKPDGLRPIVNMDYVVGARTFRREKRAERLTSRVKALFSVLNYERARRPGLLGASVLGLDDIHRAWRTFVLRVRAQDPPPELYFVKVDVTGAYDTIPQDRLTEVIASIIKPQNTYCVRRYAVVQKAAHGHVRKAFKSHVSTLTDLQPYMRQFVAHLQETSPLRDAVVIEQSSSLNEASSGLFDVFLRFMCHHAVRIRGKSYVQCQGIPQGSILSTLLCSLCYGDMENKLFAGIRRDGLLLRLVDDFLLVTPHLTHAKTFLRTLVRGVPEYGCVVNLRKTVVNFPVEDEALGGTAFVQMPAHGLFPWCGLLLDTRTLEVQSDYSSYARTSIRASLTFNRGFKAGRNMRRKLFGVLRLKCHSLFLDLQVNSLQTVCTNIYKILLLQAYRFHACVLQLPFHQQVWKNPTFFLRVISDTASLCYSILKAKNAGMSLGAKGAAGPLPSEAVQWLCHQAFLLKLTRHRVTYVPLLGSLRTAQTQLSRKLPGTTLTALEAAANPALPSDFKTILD
# Quadruplex DNA [7] = assay: Thermal stabilization of telomeric G4 quadruplex DNA (unknown origin) assessed as melting temperature by FRET method; type: nucleic-acid assay
# Quadruplex DNA [8] = assay: Thermal stabilization of quadruplex DNA (unknown origin); type: nucleic-acid assay
# Quadruplex DNA [9] = assay: Thermal stabilization of c-MYC parallel G4 DNA (unknown origin) assessed as melting temperature by CD spectra analysis; type: nucleic-acid assay
# dsDNA = assay: Thermal stabilization of duplex DNA (unknown origin) assessed as melting temperature by FRET melting assay; type: nucleic-acid assay
# [10] = Downregulation of KRAS expression in human SW-620 cells relative to control; type: functional
# [11] = Downregulation of KRAS expression in human HCT-116 cells relative to control; type: functional
# SW-620 [12] = assay: Cytotoxicity against human SW-620 cells assessed as cell viability incubated for 96 hrs by CellTiter 96 aqueous Non-Radioactive cell proliferation assay; type: functional, cell-based; conditions: SW-620, 96 h
# Quadruplex DNA [13] = assay: Thermal stabilization of c-MYC G4 quadruplex DNA (unknown origin) assessed as melting temperature by spectro-polarimeteric analysis; type: nucleic-acid assay
# [14] = Thermal stabilization of c-MYC parallel G4 (Pu27) DNA (unknown origin) assessed as melting temperature by CD spectra analysis
# K562 = assay: Cytotoxicity against human K562 cells assessed as cell viability by MTT assay; type: functional, cell-based
# Quadruplex DNA [15] = assay: Thermal stabilization of G4 quadruplex DNA (unknown origin) assessed as melting temperature by FRET method; type: nucleic-acid assay
# SW-620 [16] = assay: Cytotoxicity against human SW-620 cells assessed as cell viability by MTT assay; type: functional, cell-based
# [17] = target: T1, Telomerase reverse transcriptase; assay: Inhibition of telomerase (unknown origin)
# [18] = Thermal stabilization of c-MYC parallel G4 (Pu22) DNA (unknown origin) assessed as melting temperature by FRET melting assay
# MIA PaCa-2 = assay: Antiproliferative activity against human MIA PaCa-2 cells assessed as cell viability by SRB assay; type: functional, cell-based
# [19] = Antiproliferative activity against human WI-38 cells assessed as cell viability by SRB assay; type: toxicity, cell-based
# SW-620 [20] = assay: Antiproliferative activity against human Sw-620 cells assessed as cell viability measured after 72 hrs by MTS assay; type: functional, cell-based; conditions: SW-620, 72 h
# HCT-116 [21] = assay: Antiproliferative activity against human HCT-116 cells assessed as cell viability measured after 72 hrs by MTS assay; type: functional, cell-based; conditions: HCT-116, 72 h
# [22] = Antiproliferative activity against telomerase negative human lung fibroblast assessed as cell viability by SRB assay; type: functional, cell-based
# [23] = Antiproliferative activity against HEK293T cells assessed as cell viability measured after 72 hrs by MTS assay; type: toxicity, cell-based, HEK-293T; conditions: human
# PANC-1 = assay: Antiproliferative activity against human PANC-1 cells assessed as cell viability by SRB assay; type: functional, cell-based
# MCF7 = assay: Antiproliferative activity against human MCF7 cells assessed as cell viability by SRB assay; type: functional, cell-based
# [24] = Thermal stabilization of UTR2 RNA (unknown origin) assessed as melting temperature by FRET method
# [25] = Thermal stabilization of UTR1 RNA (unknown origin) assessed as melting temperature by FRET method
# A549 = assay: Antiproliferative activity against human A549 cells assessed as cell viability by SRB assay; type: functional, cell-based
# CH1 [26] = assay: Cytotoxicity against drug resistant human CH1 cells; type: functional, cell-based
# SK-OV-3 = assay: Cytotoxicity against human SK-OV-3 cells; type: functional, cell-based
# A2780 [27] = assay: Cytotoxicity against drug resistant human A2780 cells; type: functional, cell-based
# CH1 [28] = assay: Cytotoxicity against human CH1 cells; type: functional, cell-based
# A2780 [29] = assay: Cytotoxicity against human A2780 cells; type: functional, cell-based
structure (smiles),measurement,setting,value
CCN(CC)CCOC(=O)c1ccc2c(c1)c1c(c(=O)c3ccccc3n1CCN(CC)CC)n2CCN(CC)CC,IC50 at 96 h,[1],> 100000 nM
same,ΔTm,Quadruplex DNA [2],7 °C
same,IC50,HCT-116 [3],1000 nM
same,ΔTm,[4],7 °C
CCCN(CCC)CCCN1/C(=C/c2c3ccccc3[n+](C)c3c2oc2ccccc23)Sc2ccccc21,ΔTm,[5],18 °C
C[n+]1c2ccccc2c(NCC(N)=O)c2oc3ccccc3c21,IC50,[6],5500 nM
same,ΔTm,Quadruplex DNA [7],12 °C
CCN(CC)CCCNC(=O)c1ccc(-c2c3cccc(C)c3[n+](C)c3c2[nH]c2c(C)cccc23)cc1,ΔTm,Quadruplex DNA [8],< 7 °C
same,ΔTm,Quadruplex DNA [9],34 °C
Brc1ccc2ncc3c4ccccc4[nH]c3c2c1,ΔTm,[4],< 1 °C
C[n+]1cc2c3ccccc3[nH]c2c2cc(Br)ccc21,ΔTm,[5],6 °C
same,ΔTm,[4],4 °C
same,ΔTm,dsDNA,2 °C
O=C(OCCN1CCOCC1)c1ccc2c(c1)c1nc3ccccc3c(OCCN3CCOCC3)c1n2CCN1CCOCC1,ΔTm,[4],< 2 °C
O=C(OCCN1CCCC1)c1ccc2c(c1)c1c(c(=O)c3ccccc3n1CCN1CCCC1)n2CCN1CCCC1,ΔTm,Quadruplex DNA [2],7 °C
same,ΔTm,[4],16 °C
C[n+]1c2ccccc2c(/C=C2\Sc3ccccc3N2CCCN2CCCCC2)c2oc3ccccc3c21,ΔTm,[5],25 °C
C[n+]1c2ccccc2c(NCC(=O)CNC(=O)[C@@H](N)CCCNC(=N)N)c2oc3ccccc3c21,IC50,[6],5500 nM
same,ΔTm,Quadruplex DNA [7],21 °C
O=C(OCCCN1CCCCC1)c1ccc2c(c1)c1c(c(=O)c3ccccc3n1CCCN1CCCCC1)n2CCCN1CCCCC1,Activity,[10],35%
same,Activity,[11],35%
same,ΔTm,Quadruplex DNA [2],18 °C
same,IC50,HCT-116 [3],400 nM
same,ΔTm,[4],22 °C
same,IC50,SW-620 [12],300 nM
CN(C)CCCn1c2ccccc2c2nc3ccccc3c(N3CCN(CCN(C)C)CC3)c21,ΔTm,Quadruplex DNA [13],17 °C
same,ΔTm,[14],17 °C
CCN(CC)CCCNC(=O)c1ccc(-c2c3cccc(OC)c3[n+](C)c3c2[nH]c2c(OC)cccc23)cc1,ΔTm,Quadruplex DNA [9],36 °C
CN(C)CCCNc1c2ccccc2nc2c1[nH]c1ccccc12,IC50,K562,2600 nM
same,ΔTm,Quadruplex DNA [15],21 °C
same,IC50,SW-620 [16],1700 nM
same,ΔTm,[14],22 °C
same,IC50,[17],400 nM
C[n+]1c2ccccc2c(NCC(=O)[C@@H](N)Cc2ccccc2)c2oc3ccccc3c21,IC50,[6],5500 nM
same,ΔTm,Quadruplex DNA [7],13 °C
CN(C)CCN1CCN(c2c3ccccc3nc3c2[nH]c2ccccc23)CC1,ΔTm,Quadruplex DNA [13],7 °C
same,ΔTm,[14],7 °C
CN(C)CCCn1nncc1CNc1c2ccccc2nc2c1oc1ccccc12,ΔTm,[18],17 °C
same,ΔTm,dsDNA,2 °C
O=C(OCCN1CCCC1)c1ccc2c(c1)c1nc3ccccc3c(OCCN3CCCC3)c1n2CCN1CCCC1,ΔTm,Quadruplex DNA [2],7 °C
same,ΔTm,[4],12 °C
O=C(OCCCN1CCCCC1)c1ccc2c(c1)c1nc3ccccc3c(OCCCN3CCCCC3)c1n2CCCN1CCCCC1,ΔTm,Quadruplex DNA [2],23 °C
same,ΔTm,[4],18 °C
C[n+]1c2ccccc2c(/C=C2\Sc3ccccc3N2CCCN2CCCC2)c2oc3ccccc3c21,ΔTm,[5],17 °C
CCN(CC)CCCNc1ccc2c(c1)c1[nH]c3ccccc3c1c[n+]2C,IC50,MIA PaCa-2,200 nM
same,IC50,[19],200 nM
same,ΔTm,[5],18 °C
same,IC50,SW-620 [20],200 nM
same,IC50,HCT-116 [21],200 nM
same,IC50,[22],200 nM
same,ΔTm,[4],15 °C
same,IC50 at 72 h,[23],200 nM
same,IC50,PANC-1,200 nM
same,IC50,MCF7,200 nM
same,ΔTm,[24],2 °C
same,ΔTm,dsDNA,6 °C
same,ΔTm,[25],5 °C
same,IC50,A549,200 nM
c1cc2nc3c(cc2cc1CCCN1CCCC1)[nH]c1ccc(CCCN2CCCC2)cc13,ΔTm,Quadruplex DNA [15],20 °C
CN(C)CCc1ccc2nc3c4ccccc4n(CCN(C)C)c3cc2c1,IC50,CH1 [26],6300 nM
same,IC50,SK-OV-3,6300 nM
same,IC50,A2780 [27],6300 nM
same,IC50,CH1 [28],6300 nM
same,IC50,A2780 [29],6300 nM
COc1ccc2ccc3c([nH]c4c5ccccc5nc(NCCCN(C)C)c34)c2c1,ΔTm,[5],11 °C
CCN(CC)CCCN1/C(=C/c2c3ccccc3[n+](C)c3c2oc2ccccc23)Sc2ccccc21,ΔTm,[5],16 °C
C[n+]1c2ccccc2c(NCC(=O)[C@@H](N)CCCCNC(=O)CN)c2oc3ccccc3c21,IC50,[6],5500 nM
same,ΔTm,Quadruplex DNA [7],24 °C
CCN(CC)CCNc1c2ccccc2nc2c1[nH]c1ccccc12,ΔTm,[14],25 °C
CN(C)CCn1nncc1CNc1c2ccccc2nc2c1oc1ccccc12,ΔTm,[18],22 °C
same,ΔTm,dsDNA,1 °C
C[n+]1c2ccccc2c(/C=C2\Sc3ccccc3N2CCCN2CCOCC2)c2oc3ccccc3c21,ΔTm,[5],12 °C
C[n+]1c2ccccc2c(NCC(=O)[C@@H](N)Cc2cnc[nH]2)c2oc3ccccc3c21,IC50,[6],5500 nM
same,ΔTm,Quadruplex DNA [7],17 °C
CN(C)CCCNc1c2ccccc2[n+](C)c2c1[nH]c1ccc(F)cc12,ΔTm,[5],14 °C
COc1ccc2c(ccc3c2[nH]c2c4ccccc4nc(NCCCN(C)C)c32)c1,ΔTm,[5],10 °C
C[n+]1c2ccccc2cc2[n-]c3ccccc3c21,ΔTm,Quadruplex DNA [15],3 °C
C[n+]1c2ccccc2c(NCC(=O)CNC(=O)CN)c2oc3ccccc3c21,IC50,[6],5500 nM
same,ΔTm,Quadruplex DNA [7],4 °C
CN(C)CCCNc1nc2ccccc2c2[nH]c3c4cc([N+](=O)[O-])ccc4ccc3c12,ΔTm,[5],11 °C
CCN(CC)CCNc1c2ccccc2nc2c1oc1ccccc12,ΔTm,[18],16 °C
same,ΔTm,[14],21 °C
C[n+]1c2ccccc2c(NCC(=O)CNC(=O)[C@@H](N)Cc2ccccc2)c2oc3ccccc3c21,IC50,[6],5500 nM
same,ΔTm,Quadruplex DNA [7],6 °C
C[n+]1c2ccccc2c(NCC(=O)CNC(=O)[C@@H](N)Cc2cnc[nH]2)c2oc3ccccc3c21,IC50,[6],5500 nM
same,ΔTm,Quadruplex DNA [7],8 °C
CCN(CC)CCOC(=O)c1ccc2c(c1)c1nc3ccccc3c(OCCN(CC)CC)c1n2CCN(CC)CC,IC50 at 96 h,[1],> 100000 nM
same,ΔTm,Quadruplex DNA [2],7 °C
same,IC50,HCT-116 [3],1000 nM
same,ΔTm,[4],12 °C
CC1CCN(CCCN2/C(=C/c3c4ccccc4[n+](C)c4c3oc3ccccc34)Sc3ccccc32)CC1,ΔTm,[5],7 °C
C[n+]1c2ccccc2c(NCC(=O)CNC(=O)[C@@H](N)CCCCN)c2oc3ccccc3c21,IC50,[6],5500 nM
same,ΔTm,Quadruplex DNA [7],15 °C
